Measured values published in patent US12409126B2, “Ginsenoside-containing composition, daily-use chemical and use thereof” (InCipirit Tech (Guangzhou) Co., Ltd., priority 2023, dated 2025).
Where a name gives a salt, the structure may show the parent alone.

Tested on: human epidermal keratinocytes
Assay: Epidermal keratinocyte proliferation in dermal papilla cell and epidermal keratinocyte double-layer culture system
Type: cell-based
Conditions: 0.2 μg/ml, 2 μg/ml, 20 μg/ml, 200 μg/ml
Protocol: 500 μl of human epidermal keratinocytes (30,000 cells/ml) were added to each well of MULTIWELL 24well, followed by the addition of 1.0 μm of cell culture inserts for culture for 1 day. 300 μl of dermal papilla cells (20,000 cells/ml) had been added in the 1.0 μm of cell culture inserts. each 1 μl/well of the Radix et Rhizoma Ginseng extracts 1-7, the positive control (minoxidil sulfate) and the blank control (DMSO) was then added for continued culture for 3 days. After removal of the 1.0 μm of cell culture inserts, 50 μl/well of Cell Counting Kit-8 (Dojindo Laboratories) was added for continued culture for 2 hours, and the cell number was determined using a microplate reader (450 nm, Mix0).

Nc1cc(N2CCCCC2)nc(N)[n+]1OS(=O)(=O)[O-] [Minoxidil sulfate, minoxidil sulfate]
epidermal keratinocyte proliferation in double-layer culture system: no effect in promoting keratinocyte proliferation
